Test results published in US10174013B2, “Benzimidazole derivatives as kinase inhibitors” (SELVITA S.A., priority 2012, dated 2019).
Like-named read-outs stand apart in the source and are kept apart here.

Assays:
DYRK1 = DYRK1 (Homo sapiens (Human), UniProt Q13627); assay: ADP-Glo Kinase Assay, DYRK1; format: biochemical; settings: 1 μM compound; for inhibition at 1 µM: read-out: DYRK1A % INH (1 μM)
In short: (§1)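 Buffer was MOPS 5 mM (pH 7.5) with MgCl2, EDTA and DTT; ATP set at apparent Km per kinase. Compounds were diluted in assay buffer to 1000 nM. Kinase-generated ADP was converted to luciferase signal and normalised to percent inhibition.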

MOLM16 cells = assay: Growth inhibition, MTS assay, MOLM16; format: cell-based, Human; settings: MTS cell viability, read-out: MOLM 16 ED50
From the text: The following cell lines, were obtained and used in tests as outlined below: • Human myelomonocytic, biphenotypic leukemia MV4-11 cells (harboring a Flt3-ITD mutation); • Human Acute Myeloid Leukemia MOLM16 cells; • Human Acute Myeloid Leukemia MOLM13 cells (harboring a Flt3-ITD mutation); • Human Myeloid Leukemia KG-1 cells; • Human erythroleukemia HEL92 cells; • Human mantle cell lymphoma Jeko-1 cells; • Human hepatocellular carcinoma HepG2 cells; and • Human colon adenocarcinoma SW-480 cells.
The assays were carried out according to the following protocol, which is described as an example for the MV4-11 cells:
Ten thousand MV4-11 cells were inoculated into each well of a 96-well microplate (manufactured by Corning Corp.) using Iscove's MDM medium (culture medium) containing 10% fetal calf serum (FCS). The same day, a dimethyl sulfoxide (DMSO) solution of each test compound prepared in a concentration of 10 mmol/L was further diluted with DMSO to the desired concentrations (0.1, 0.5, 1, 2.5, 5 and 10 micromol/L), and the diluted solution was added to each well. The individual wells were further cultured in 5% carbon dioxide at 37° C. for 72 hours. […] Briefly, 10 μl MTS (3-(4,5-Dimethyl-2-thiazolyl)-5-(carboxymethoxyphenyl)-2-(4-sulfophenyl)-2H-tetrazolium was added to each well, and culturing was performed in 5% carbon dioxide at 37° C. for 2 hours. After this incubation and using a microplate spectrophotometer (Synergy 2 multi-mode microplate reader (BioTek)), the absorbance of each well was measured at 490 nm. The value for cells not incubated with a test compound was designated as 100%. By comparing these values with the absorbance difference obtained at the well in which each test compound was added, the cell viability (% viability) after treatment with the test compound was calculated.

Pim-1 = Pim-1 (Homo sapiens (Human), UniProt P11309); assay: ADP-Glo Kinase Assay, Pim-1; format: biochemical; settings: 1 μM compound; for inhibition at 1 µM: read-out: Pim-1 % INH (1 μM)
Pim-1, sequence (P11309 whole entry): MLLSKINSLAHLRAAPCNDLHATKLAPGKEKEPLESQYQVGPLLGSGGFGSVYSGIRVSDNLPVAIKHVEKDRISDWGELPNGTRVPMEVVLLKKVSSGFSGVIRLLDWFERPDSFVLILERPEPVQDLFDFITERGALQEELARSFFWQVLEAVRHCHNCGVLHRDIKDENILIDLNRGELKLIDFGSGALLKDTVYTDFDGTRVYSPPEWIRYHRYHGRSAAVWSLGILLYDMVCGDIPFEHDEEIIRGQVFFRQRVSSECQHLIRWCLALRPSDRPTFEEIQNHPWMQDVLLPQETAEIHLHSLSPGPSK
In short: as §1

MV4-11 cells = assay: Growth inhibition, MTS assay, MV4-11; format: cell-based, Human; settings: MTS cell viability, read-out: MV4-11 ED50
CDK2/E = CDK2/E (Homo sapiens (Human), UniProt P24941); assay: ADP-Glo Kinase Assay, CDK2/E; format: biochemical; settings: 1 μM compound; for inhibition at 1 µM: read-out: CDK2/E % INH (1 μM)
In short: as §1

FLT3wt = FLT3wt (Homo sapiens (Human), UniProt P36888); assay: ADP-Glo Kinase Assay, Flt3 wt; format: biochemical; settings: 1 μM compound; for inhibition at 1 µM: read-out: Flt3wt % INH (1 μM)
FLT3wt, sequence (P36888 27-993): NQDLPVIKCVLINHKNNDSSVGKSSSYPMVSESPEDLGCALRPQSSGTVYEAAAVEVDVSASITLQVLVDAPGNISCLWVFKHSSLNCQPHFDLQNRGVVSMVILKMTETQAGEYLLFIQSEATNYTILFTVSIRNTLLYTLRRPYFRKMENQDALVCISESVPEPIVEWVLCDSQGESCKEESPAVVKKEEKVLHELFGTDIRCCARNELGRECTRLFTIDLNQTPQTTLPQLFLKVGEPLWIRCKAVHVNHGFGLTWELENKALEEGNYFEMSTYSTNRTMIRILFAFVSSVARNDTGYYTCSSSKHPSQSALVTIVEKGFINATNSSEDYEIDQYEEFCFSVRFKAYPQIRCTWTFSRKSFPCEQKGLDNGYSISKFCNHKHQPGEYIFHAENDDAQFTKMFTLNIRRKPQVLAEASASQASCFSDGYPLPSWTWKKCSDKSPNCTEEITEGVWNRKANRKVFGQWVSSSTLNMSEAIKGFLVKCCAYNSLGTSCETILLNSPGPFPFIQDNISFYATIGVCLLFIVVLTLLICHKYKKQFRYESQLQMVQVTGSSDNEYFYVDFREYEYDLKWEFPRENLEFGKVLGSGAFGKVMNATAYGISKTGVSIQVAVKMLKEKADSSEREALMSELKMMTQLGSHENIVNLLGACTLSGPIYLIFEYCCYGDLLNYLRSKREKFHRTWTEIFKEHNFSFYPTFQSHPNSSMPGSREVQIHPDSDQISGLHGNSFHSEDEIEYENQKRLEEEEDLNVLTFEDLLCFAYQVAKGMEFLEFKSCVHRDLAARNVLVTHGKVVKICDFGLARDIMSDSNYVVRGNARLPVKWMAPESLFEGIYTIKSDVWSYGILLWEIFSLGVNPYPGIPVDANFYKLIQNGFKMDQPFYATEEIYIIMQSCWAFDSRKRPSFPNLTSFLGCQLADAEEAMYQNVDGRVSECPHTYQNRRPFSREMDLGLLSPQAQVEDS
In short: as §1

Pim-2 = Pim-2 (Homo sapiens (Human), UniProt Q9P1W9); assay: ADP-Glo Kinase Assay, Pim-2; format: biochemical; settings: 1 μM compound; read-out: Pim-2 % INH (1 μM)
Pim-2, sequence (Q9P1W9 whole entry): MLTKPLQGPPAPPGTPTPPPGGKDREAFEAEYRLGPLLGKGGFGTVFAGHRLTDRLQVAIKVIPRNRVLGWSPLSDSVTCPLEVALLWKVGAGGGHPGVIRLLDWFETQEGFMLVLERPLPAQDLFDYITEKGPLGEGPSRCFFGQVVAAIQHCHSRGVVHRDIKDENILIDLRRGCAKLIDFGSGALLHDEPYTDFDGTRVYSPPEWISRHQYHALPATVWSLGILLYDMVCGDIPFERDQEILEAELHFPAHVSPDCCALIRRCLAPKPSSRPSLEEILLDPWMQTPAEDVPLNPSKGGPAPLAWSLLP
In short: as §1

CYP3A4 = CYP3A4 (Homo sapiens (Human), UniProt P08684); assay: Cytochrome P450 inhibition, fluorescence, CYP3A4; format: in vitro ADME; settings: recombinant CYP3A4, fluorescence detection; read-out: CYP inhibition (CYP 3A4 screening, IC50 class)
CYP3A4, sequence (P08684 whole entry, canonical isoform): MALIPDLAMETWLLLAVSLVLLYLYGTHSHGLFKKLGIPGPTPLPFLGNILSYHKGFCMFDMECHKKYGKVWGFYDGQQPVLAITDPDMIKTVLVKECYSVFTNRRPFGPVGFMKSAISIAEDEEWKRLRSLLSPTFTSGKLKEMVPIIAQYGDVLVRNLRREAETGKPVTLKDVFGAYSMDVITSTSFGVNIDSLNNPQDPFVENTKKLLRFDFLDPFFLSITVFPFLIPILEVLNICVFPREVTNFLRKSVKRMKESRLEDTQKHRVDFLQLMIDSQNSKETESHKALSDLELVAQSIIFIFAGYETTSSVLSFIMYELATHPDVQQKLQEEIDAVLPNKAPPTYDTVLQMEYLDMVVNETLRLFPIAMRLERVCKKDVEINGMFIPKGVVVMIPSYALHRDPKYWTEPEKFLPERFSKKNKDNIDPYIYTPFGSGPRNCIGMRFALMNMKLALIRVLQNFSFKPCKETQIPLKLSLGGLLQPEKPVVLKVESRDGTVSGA
Description: The assays for cytochrome P450 inhibition facilitate the identification of drug candidates with lower potential for drug-drug interactions (weak enzymes inhibitors). In vitro experiments were conducted to determine whether a drug inhibits a specific CYP enzyme. The experiments comprised the incubation of the drug with probe substrates for the CYP enzymes, wherein the following recombinant cytochrome P450 isoforms were employed: CYP1A2, CYP2C8, CYP2C9, CYP2C19, CYP2D6 and CYP3A4, together with various probe substrates enabling fluorescence detection. The protocol uses a single substrate concentration near the apparent Km and multiple compound concentrations.
The assay was performed in 96-well microtiter plates. The row designations were A through H and the column designations were 1 through 12. […] Each compound (see Table 6 for tested compounds) was added to the wells in column 1 and serially diluted to the wells in column 8. Wells 9 and 10 were control wells which contained no test compound (therefore no inhibition-full signal is detected.) The wells in columns 11 and 12 were blanks, where STOP solution was added prior to the addition of the enzyme/substrate mix to the NADPH regenerating system (the only signal present in these wells is background noise.) The assay was conducted in a final volume of 0.2 ml per well.
The stock solutions of the tested compounds were prepared in DMSO at 10 mM concentration. […] After mixing the compounds with solution containing NADPH-cofactors, the mixed plate was preincubated in a 37° C. incubator for at least 10 minutes; next, the fluorescence of compounds using recommended excitation/emission filters was measured in order to eliminate false results originating from autofluorescence of the compounds. In the following step, the enzyme/substrate mix was added to columns 1 through 10 and the plates were incubated at 37° C. for specific times depending on the CYP tested (incubation times ranged from 30 to 45 minutes). After adding STOP SOLUTION to all wells and respective enzyme/substrate mix to the wells in columns 11 and 12, the plate was scanned with a fluorescent plate scanner. The excitation/emission filters used for the specific assays are described in the GenTest Screening Kit instruction manual.

Pim-3 = Pim-3 (Homo sapiens (Human), UniProt Q86V86); assay: ADP-Glo Kinase Assay, Pim-3; format: biochemical; settings: 1 μM compound; read-out: Pim-3 % INH (1 μM)
In short: as §1

HepG2 cells = assay: Growth inhibition, MTS assay, HepG2; format: cell-based, Human; settings: MTS cell viability, read-out: HepG2 ED50
HEL92 cells = assay: Growth inhibition, MTS assay, HEL92; format: cell-based, Human; settings: MTS cell viability, read-out: HEL92 ED50

| SMILES | inhibition at 1 µM (DYRK1) | IC50 (MOLM16 cells; Homo sapiens, MOLM16, 72 h) | inhibition at 1 µM (Pim-1) | IC50 (MV4-11 cells; Homo sapiens, MV4-11, 72 h) | inhibition at 1 µM (CDK2/E) | inhibition at 1 µM (FLT3wt) | IC50 (HepG2 cells; Homo sapiens, HepG2, 72 h) | other results |
| --- | --- | --- | --- | --- | --- | --- | --- | --- |
| NCCn1c(N2CC[C@H](N)C2)nc2c([N+](=O)[O-])c(Br)c(Br)cc21 [Example 3B, (3S)-1-[1-(2-aminoethyl)-5,6-dibromo-4-nitro-1H-1,3-benzodiazol-2-yl]pyrrolidin-3-amine] | 18% | 1500 nM | > 95% | 1300 nM |  |  |  |  |
| CC(C)n1c(N2CCCC(O)C2)nc2c([N+](=O)[O-])c(Br)c(Br)cc21 (stereo not shown) [Example 22G, 1-[5,6-dibromo-4-nitro-1-(propan-2-yl)-1H-1,3-benzodiazol-2-yl]piperidin-3-] |  |  | > 95% | 4800 nM | 5% | 13% |  | inhibition at 1 µM (Pim-2): 47%; IC50 (CYP3A4): > 10000 nM; inhibition at 1 µM (Pim-3): 87% |
| NC(=O)Cn1c(N2CCNCC2)nc2c([N+](=O)[O-])c(Br)c(Br)cc21 [Example 2L, 2-[5,6-dibromo-4-nitro-2-(piperazin-1-yl)-1H-1,3-benzodiazol-1-yl]acetamide] |  | 3100 nM | 67% | 6100 nM |  |  |  |  |
| CCn1c(NC2CCC(N)CC2)nc2c(C#N)c(Br)c(Br)cc21 (stereo not shown) [Example 1DV] | 95% | 1500 nM | > 95% | 2100 nM | 50% | < 5% | 2900 nM |  |
| CC(C)n1c(N2CCNCC2)nc2c([N+](=O)[O-])c(C(F)(F)F)c(Br)cc21 [Example 9B, 6-bromo-4-nitro-2-(piperazin-1-yl)-1-(propan-2-yl)-5-(trifluoromethyl)-1H-1,3-benzodiazole] | 33% | 7290 nM | 59% | 5900 nM |  |  | 2700 nM |  |
| CC(C)n1c(N2C[C@H]3C[C@@H]2CN3)nc2c([N+](=O)[O-])c(Br)c(Br)cc21 [Example 22AE, 5,6-dibromo-2-[(1R,4R)-2,5-diazabicyclo[2.2.1]heptan-2-yl]-4-nitro-1-(propan-2-yl)-1H-1,3-benzodiazole] | 95% | 2800 nM | 76% | 2700 nM |  |  | > 10000 nM |  |
| CCn1c(NC2CCC(N)CC2)nc2c([N+](=O)[O-])c(Br)c(Br)cc21 (stereo not shown) [Example 1DU] |  | 900 nM |  |  |  |  |  | CDK2/E % INH (1 μM) (CDK2/E): 53%; IC50 (HepG2 cells; 72 hours): 1300 nM; DYRK1A % INH (1 μM) (DYRK1): 39%; Flt3wt % INH (1 μM) (FLT3wt): 12%; IC50 (HEL92 cells; Homo sapiens, 72 h): 5500 nM; Pim-1 % INH (1 μM) (Pim-1): >95%; IC50 (MV4-11 cells; 72 hours): 1000 nM |
| CC(C)n1c(N2CCC(N)CC2)nc2c(C#N)c(Br)c(Br)cc21 [Example 1DT] | 34% | 300 nM | > 95% | 1500 nM | 46% | < 5% | 1000 nM |  |
| CC(C)n1c(N2CCOC(CN)C2)nc2c(C#N)c(Br)c(Br)cc21 (stereo not shown) [Example 1BM] |  |  | > 95% | 4900 nM | < 5% | < 5% | 4500 nM | IC50 (CYP3A4): 1100 to 3300 nM; inhibition at 1 µM (Pim-3): 62% |
| CC(C)n1c(N2CCC[C@H](O)C2)nc2c([N+](=O)[O-])c(Br)c(Br)cc21 [Example 22I, (3S)-1-[5,6-dibromo-4-nitro-1-(propan-2-yl)-1H-1,3-benzodiazol-2-yl]piperidin-3-ol] | 20% |  | > 95% | 5400 nM | < 5% | < 5% |  | inhibition at 1 µM (Pim-2): 28%; IC50 (CYP3A4): > 10000 nM; inhibition at 1 µM (Pim-3): 84% |
| CC(C)n1c(C2CCCC(N)C2)nc2c([N+](=O)[O-])c(Br)c(Br)cc21 (single isomer, unassigned) [Example 26B, 3-[5,6-dibromo-4-nitro-1-(propan-2-yl)-1H-1,3-benzodiazol-2-yl]cyclohexan-1-amine] |  | 100 nM | > 95% |  | 36% | 43% |  | IC50 (HEL92 cells; 72 hours): 6100 nM; IC50 (MV4-11 cells; 72 hours): 400 nM |
| CC(C)n1c(C2CCC(N)CC2)nc2c([N+](=O)[O-])c(Br)c(Br)cc21 (stereo not shown) [Example 26D, 4-[5,6-dibromo-4-nitro-1-(propan-2-yl)-1H-1,3-benzodiazol-2-yl]cyclohexan-1-amine] |  | 1000 nM | > 95% | 800 nM | 36% | 38% |  | IC50 (HEL92 cells; Homo sapiens, 72 h): 9700 nM |
| N[C@@H]1CCN(c2nc3c([N+](=O)[O-])c(Br)c(Br)cc3n2C2CCC2)C1 [Example 1DC] |  |  |  |  |  |  |  | IC50 (HepG2 cells; 72 hours): 1000 nM; DYRK1A % INH (1 μM) (DYRK1): >95%; IC50 (MOLM16 cells; 72 hours): 160 nM; Flt3wt % INH (1 μM) (FLT3wt): 52%; IC50 (HEL92 cells; 72 hours): 2000 nM; Pim-1 % INH (1 μM) (Pim-1): >95%; IC50 (MV4-11 cells; 72 hours): 200 nM |
| NCCCn1c(N2CC[C@@H](N)C2)nc2c([N+](=O)[O-])c(Br)c(Br)cc21 [Example 3A, (3R)-1-[1-(3-aminopropyl)-5,6-dibromo-4-nitro-1H-1,3-benzodiazol-2-yl]pyrrolidin-3-amine] |  | 1900 nM | > 95% | 2300 nM | 20% | < 5% | 6300 nM |  |
| CN[C@@H]1CCN(c2nc3c(C#N)c(Br)c(Br)cc3n2C(C)C)C1 [Example 1DW] |  | 300 nM | > 95% | 5100 nM | 48% | 8% |  |  |
| CC(C)n1c(C2CCCC(N)C2)nc2c([N+](=O)[O-])c(Br)c(Br)cc21 (single isomer, unassigned) [Example 26C, 3-[5,6-dibromo-4-nitro-1-(propan-2-yl)-1H-1,3-benzodiazol-2-yl]cyclohexan-1-amine] |  |  |  |  |  |  |  | CDK2/E % INH (1 μM) (CDK2/E): 55%; IC50 (MOLM16 cells; 72 hours): 200 nM; Flt3wt % INH (1 μM) (FLT3wt): 55%; IC50 (HEL92 cells; 72 hours): 3000 nM; Pim-1 % INH (1 μM) (Pim-1): >95%; IC50 (MV4-11 cells; 72 hours): 100 nM |
